Data taken from patent US20100015164A1, “Compositions and Methods for Modulating Osteoblast Cell Differentiation and Bone Generation Through HIF-1a” (THE UAB RESEARCH FOUNDATION, priority 2005, published 2010).
Entries after “also recorded” stand apart in the source; their conditions may differ.

Tests used:
HIF-1α [1] = assay: Western blotting of nuclear protein for HIF-1α in primary osteoblasts exposed to cobalt; type: cell-based, mouse; conditions: primary osteoblast cultures; 5, 10, or 50 ng/ml cobalt; 0, 3, 6, 12, and 24 hours of exposure
Description: The class of PHDs acting on HIF-1α require oxygen, iron, and 2-oxyglutarate as co-factors. Small molecules that block these enzymes are iron chelators, such as cobalt and desferrioxamine, or 2-oxyglutarate analogs such as L-mimosinc and 3,4 DHB, and DMOG. A schematic of the PHD enzyme and the structures of the 2-oxyglutarate analogs is reproduced in FIG. 5. A number of previous studies have shown an increase of VEGF and other HIF-1α target genes in cells treated with the small molecule PHD inhibitors selected here. Because the effects of the PHD inhibiting agents have not been tested in primary osteoblasts, studies were performed to evaluate their ability to increase HIF-1α. Osteoblasts were grown to near confluence, and then exposed to varying concentrations of cobalt chloride. At time zero, and after 3, 6, 12, and 24 hours of exposure, the cells were harvested and nuclear protein was extracted.

VEGF = VEGF mRNA expression by real time PCR in osteoblasts exposed to cobalt chloride; type: cell-based, mouse; conditions: 5, 10, or 50 ng/mL cobalt chloride, 3, 12, or 24 hours
Method: The osteoblasts were exposed to 5, 10, or 50 ng/mL of cobalt chloride. After, 3, 12, or 24 hours, cells were harvested and mRNA was collected. Real time PCR was performed with β-actin as control. […] Additionally, they lend support to the approach of using VEGF upregulation as assessed by real time PCR as a surrogate for HIF-1α activation in initial screening rather than the more time consuming approach of western blotting for HIF-1α.

HIF-1α [2] = conditions: in vitro and in vivo, published studies; cited from earlier work

Structure (SMILES)	nuclear HIF-1α (Western blot of nuclear extracts) (HIF-1α [1])	VEGF mRNA expression (real time PCR, β-actin as control) (VEGF)	VEGF mRNA expression (real time PCR, β-actin as control) (VEGF; listed as cobalt)	HIF-1α activation (HIF-1α [2])
[Cl][Co][Cl] [cobalt chloride]	time and dose dependent increase in nuclear HIF-1α; also recorded: increased nuclear accumulation after cobalt treatment at all doses	Marked upregulation of VEGF expression	Marked upregulation of VEGF was seen after 12 and 24 hours	increase HIF-1α activation in vitro and in vivo
CC(=O)N(O)CCCCCNC(=O)CCC(=O)N(O)CCCCCNC(=O)CCC(=O)N(O)CCCCCN [desferrioxamine]	–	–	–	increase HIF-1α activation in vitro and in vivo
